The results in this text go back to US10538555B2, “Macrocyclic inhibitors of the PD-1/PD-L1 and CD80(B7-1)/PD-L1 protein/protein interactions” (BRISTOL-MYERS SQUIBB COMPANY, priority 2014, dated 2020).

Where two headings read alike, the source gives them in different places. Where a SMILES comes first, the peptide text is derived from it. Bridges are numbered along the chain shown (N, C = ends). [ ]: non-standard residue; d: D form. ξ: configuration not given here. Phe(4-NO2) = N[C@@H](Cc1ccc([N+](=O)[O-])cc1)C(=O)O; Trp(5-Cl) = N[C@@H](Cc1c[nH]c2ccc(Cl)cc12)C(=O)O; Phe(3,4-Cl2) = N[C@@H](Cc1ccc(Cl)c(Cl)c1)C(=O)O; Trp(7-aza) = N[C@@H](Cc1c[nH]c2ncccc12)C(=O)O; ξTrp(7-aza) = NC(Cc1c[nH]c2ncccc12)C(=O)O; 1Nal = N[C@@H](Cc1cccc2ccccc12)C(=O)O; 2Nal = N[C@@H](Cc1ccc2ccccc2c1)C(=O)O; Bta = N[C@@H](Cc1csc2ccccc12)C(=O)O; NMe3Pal = CN[C@@H](Cc1cccnc1)C(=O)O; NMeF = CN[C@@H](Cc1ccccc1)C(=O)O; 3Pal = N[C@@H](Cc1cccnc1)C(=O)O; 4Pal = N[C@@H](Cc1ccncc1)C(=O)O; Cha = N[C@@H](CC1CCCCC1)C(=O)O; NMeNle = CCCC[C@H](NC)C(=O)O; Orn = NCCC[C@H](N)C(=O)O; Sar = CNCC(=O)O

In the assay the target is T1, Human PD-L1/PD-1 (Homo sapiens, UniProt Q9NZQ7).
T1 construct: TVMV protease cleavage site (C); made in house; host or cells: HEK293T cells
T1 sequence (Q9NZQ7 with tags, fused parts or gaps): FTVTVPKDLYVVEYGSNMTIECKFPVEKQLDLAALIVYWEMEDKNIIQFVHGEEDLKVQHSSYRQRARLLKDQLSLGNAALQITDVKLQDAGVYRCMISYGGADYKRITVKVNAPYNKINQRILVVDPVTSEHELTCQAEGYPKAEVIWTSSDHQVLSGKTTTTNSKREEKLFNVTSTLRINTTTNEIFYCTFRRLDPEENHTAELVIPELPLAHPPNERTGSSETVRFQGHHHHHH
The assay is described as follows: HTRF Human PD-L1/PD-1 binding assay (PD-1-Ig/PD-L1-His). Conditions: PD-L1-His 10 nM, PD-1-Ig 20 nM. A digest of the protocol:
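HTRF competition using HEK293T-expressed human PD-1(25-167)-Ig at 20 nM and PD-L1(18-239)-His at 10 nM, compound incubated first with PD-L1 for 15 min, then with PD-1 for 15 min. Signal read as 665/620 nm ratio 30 min after adding Eu anti-Ig and APC anti-His antibodies.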
A general note: Time-resolved FRET reads energy transfer from a long-lived donor to a nearby acceptor.

[1] abbreviates: class symbol, read-out: HTRF Human PD-L1/PD-1 Binding Assay IC50 Range.

Regarding `CCCC[C@H]1C(=O)N(C)CC(=O)N[C@@H](CC(=O)O)C(=O)N[C@@H](C(C)C)C(=O)N[C@@H](Cc2c[nH]c3ccccc23)C(=O)N[C@@H](Cc2ccc(O)cc2)C(=O)N(C)CC(=O)N[C@@H](Cc2c[nH]c3ccccc23)C(=O)N[C@@H](Cc2ccc(O)cc2)C(=O)N[C@@H](CC(C)C)C(=O)N[C@H](C(=O)NCC(N)=O)CSCC(=O)N[C@@H](Cc2ccccc2)C(=O)N(C)[C@@H](Cc2ccccc2)C(=O)N1C` [Example 3232] ({CH2CO}-F[NMeF][NMeNle][Sar]DVWY[Sar]WYLCG-NH2; thioether N-13), the IC50 under setting [1] lay in the range of 1000 to 10000 nM.
Still for that read-out and setting: under `CCCC[C@H]1C(=O)N(C)CC(=O)N[C@@H](CC(=O)O)C(=O)N[C@@H](C(C)C)C(=O)N(C)[C@@H](Cc2ccccc2)C(=O)N[C@@H](Cc2ccc(O)cc2)C(=O)N(C)CC(=O)N[C@@H](Cc2c[nH]c3ccccc23)C(=O)N[C@@H](Cc2ccc(O)cc2)C(=O)N[C@@H](CC(C)C)C(=O)N[C@H](C(=O)NCC(N)=O)CSCC(=O)N[C@@H](Cc2ccc3ccccc3c2)C(=O)N(C)[C@@H](Cc2ccccc2)C(=O)N1C` [Example 3233] ({CH2CO}-[2Nal][NMeF][NMeNle][Sar]DV[NMeF]Y[Sar]WYLCG-NH2; thioether N-13) stands 1000 to 10000 nM.
On to `CCCC[C@H]1C(=O)N(C)CC(=O)N[C@@H](CC(=O)O)C(=O)N[C@@H](C(C)C)C(=O)N[C@@H](Cc2c[nH]c3ccccc23)C(=O)N[C@@H](Cc2c[nH]c3ccccc23)C(=O)N(C)CC(=O)N[C@@H](Cc2c[nH]c3ccccc23)C(=O)N[C@@H](Cc2ccc(O)cc2)C(=O)N[C@@H](CC(C)C)C(=O)N[C@H](C(=O)NCC(N)=O)CSCC(=O)N[C@@H](Cc2ccccc2)C(=O)N(C)[C@@H](Cc2ccccc2)C(=O)N1C` [Example 3234] ({CH2CO}-F[NMeF][NMeNle][Sar]DVWW[Sar]WYLCG-NH2; thioether N-13), for which, where the note is “read-out: HTRF Human PD-L1/PD-1 Binding Assay IC50”, the IC50 turned out to be 10000 nM.
In the case of `CCCC[C@H]1C(=O)N(C)CC(=O)N[C@@H](CC(=O)O)C(=O)N[C@@H](C(C)C)C(=O)N(C)[C@@H](Cc2ccccc2)C(=O)N[C@@H](Cc2ccc(O)cc2)C(=O)N(C)CC(=O)N[C@@H](Cc2c[nH]c3ccccc23)C(=O)N[C@@H](Cc2ccc(O)cc2)C(=O)N[C@@H](CC(C)C)C(=O)N[C@H](C(=O)NCC(N)=O)CSCC(=O)N[C@@H](Cc2cccc3ccccc23)C(=O)N(C)[C@@H](Cc2ccccc2)C(=O)N1C` [Example 3235] ({CH2CO}-[1Nal][NMeF][NMeNle][Sar]DV[NMeF]Y[Sar]WYLCG-NH2; thioether N-13), the IC50 under setting [1] fell in the range of 1000 to 10000 nM.
Take `CCCC[C@H]1C(=O)N(C)CC(=O)N[C@@H](CC(=O)O)C(=O)N[C@@H](C(C)C)C(=O)N(C)[C@@H](Cc2ccccc2)C(=O)N[C@@H](Cc2ccc(O)cc2)C(=O)N(C)CC(=O)N[C@@H](Cc2c[nH]c3ccc(Cl)cc23)C(=O)N[C@@H](Cc2ccc(O)cc2)C(=O)N[C@@H](CC(C)C)C(=O)N[C@H](C(=O)NCC(N)=O)CSCC(=O)N[C@@H](Cc2ccccc2)C(=O)N(C)[C@@H](Cc2ccccc2)C(=O)N1C` [Example 3236] ({CH2CO}-F[NMeF][NMeNle][Sar]DV[NMeF]Y[Sar][Trp(5-Cl)]YLCG-NH2; thioether N-13): under setting [1], the IC50 fell in the range of 10 to 99.9 nM.
Regarding `CCCC[C@H]1C(=O)N(C)CC(=O)N[C@@H](CC(N)=O)C(=O)N[C@@H](C(C)C)C(=O)N(C)[C@@H](Cc2ccccc2)C(=O)N[C@@H](Cc2ccc(O)cc2)C(=O)N(C)CC(=O)N[C@@H](Cc2c[nH]c3ccccc23)C(=O)N[C@@H](Cc2ccc(O)cc2)C(=O)N[C@@H](CC(C)C)C(=O)N[C@H](C(=O)NCC(N)=O)CSCC(=O)N[C@@H](Cc2ccccc2)C(=O)N(C)[C@@H](Cc2ccccc2)C(=O)N1C` [Example 3237] ({CH2CO}-F[NMeF][NMeNle][Sar]NV[NMeF]Y[Sar]WYLCG-NH2; thioether N-13), the IC50 under setting [1] was in the range of 10 to 99.9 nM.
On the same count and under the same terms, under `CCCC[C@H]1C(=O)N(C)CC(=O)N[C@@H](CC(=O)O)C(=O)N[C@@H](C(C)C)C(=O)N(C)[C@@H](Cc2ccccc2)C(=O)N[C@@H](Cc2ccc(O)cc2)C(=O)N(C)CC(=O)N[C@@H](Cc2c[nH]c3ccccc23)C(=O)N[C@@H](Cc2ccc(O)cc2)C(=O)N[C@@H](CC(C)C)C(=O)N[C@H](C(=O)NCC(N)=O)CSCC(=O)N[C@@H](CC2CCCCC2)C(=O)N(C)[C@@H](Cc2ccccc2)C(=O)N1C` [Example 3238] ({CH2CO}-[Cha][NMeF][NMeNle][Sar]DV[NMeF]Y[Sar]WYLCG-NH2; thioether N-13) stands 100 to 990 nM.
Turning to `CCCC[C@H]1C(=O)N(C)CC(=O)N[C@@H](CC(=O)O)C(=O)N[C@@H](C(C)C)C(=O)N(C)[C@@H](Cc2ccccc2)C(=O)N[C@@H](Cc2ccc(O)cc2)C(=O)N(C)CC(=O)NC(Cc2c[nH]c3ncccc23)C(=O)N[C@@H](Cc2ccc(O)cc2)C(=O)N[C@@H](CC(C)C)C(=O)N[C@H](C(=O)NCC(N)=O)CSCC(=O)N[C@@H](Cc2ccccc2)C(=O)N(C)[C@@H](Cc2ccccc2)C(=O)N1C` (stereo partly shown) [Example 3239] ({CH2CO}-F[NMeF][NMeNle][Sar]DV[NMeF]Y[Sar][ξTrp(7-aza)]YLCG-NH2; thioether N-13), the IC50 under setting [1] lay in the range of 10 to 99.9 nM.
The same measure, in the same setting: under `CCCC[C@H]1C(=O)N(C)CC(=O)N[C@@H](CC(=O)O)C(=O)N[C@@H](C(C)C)C(=O)N(C)[C@@H](Cc2ccccc2)C(=O)N[C@@H](Cc2ccc(O)cc2)C(=O)N(C)CC(=O)NC(Cc2c[nH]c3ncccc23)C(=O)N[C@@H](Cc2ccc(O)cc2)C(=O)N[C@@H](CC(C)C)C(=O)N[C@H](C(=O)NCC(N)=O)CSCC(=O)N[C@@H](CC2CCCCC2)C(=O)N(C)[C@@H](Cc2ccccc2)C(=O)N1C` (stereo partly shown) [Example 3240] ({CH2CO}-[Cha][NMeF][NMeNle][Sar]DV[NMeF]Y[Sar][ξTrp(7-aza)]YLCG-NH2; thioether N-13) stands 100 to 990 nM.
`CCCC[C@H]1C(=O)N(C)CC(=O)N[C@@H](CC(N)=O)C(=O)N[C@@H](C(C)C)C(=O)N(C)[C@@H](Cc2ccccc2)C(=O)N[C@@H](Cc2ccc(O)cc2)C(=O)N(C)CC(=O)N[C@@H](Cc2c[nH]c3ncccc23)C(=O)N[C@@H](Cc2ccc(O)cc2)C(=O)N[C@@H](CC(C)C)C(=O)N[C@H](C(=O)NCC(N)=O)CSCC(=O)N[C@@H](Cc2ccccc2)C(=O)N(C)[C@@H](Cc2ccccc2)C(=O)N1C` [Example 3241] ({CH2CO}-F[NMeF][NMeNle][Sar]NV[NMeF]Y[Sar][Trp(7-aza)]YLCG-NH2; thioether N-13): the IC50 under setting [1] was in the range of 10 to 99.9 nM.
On the same count and under the same terms, as for `CCCC[C@H]1C(=O)N(C)CC(=O)N[C@@H](CC(=O)O)C(=O)N[C@@H](C(C)C)C(=O)N(C)[C@@H](Cc2ccccc2)C(=O)N[C@@H](Cc2ccc(O)cc2)C(=O)N(C)CC(=O)N[C@@H](Cc2c[nH]c3ccccc23)C(=O)N[C@@H](Cc2ccc(O)cc2)C(=O)N[C@@H](CC(C)C)C(=O)N[C@H](C(=O)NCC(N)=O)CSCC(=O)N[C@@H](Cc2ccncc2)C(=O)N(C)[C@@H](Cc2ccccc2)C(=O)N1C` [Example 3242] ({CH2CO}-[4Pal][NMeF][NMeNle][Sar]DV[NMeF]Y[Sar]WYLCG-NH2; thioether N-13), the figure is 100 to 990 nM; as for `CCCC[C@H]1C(=O)N(C)CC(=O)N[C@@H](CC(=O)O)C(=O)N[C@@H](C(C)C)C(=O)N(C)[C@@H](Cc2ccccc2)C(=O)N[C@@H](Cc2ccc(O)cc2)C(=O)N(C)CC(=O)N[C@@H](Cc2c[nH]c3ccccc23)C(=O)N[C@@H](Cc2ccc(O)cc2)C(=O)N[C@@H](CC(C)C)C(=O)N[C@H](C(=O)NCC(N)=O)CSCC(=O)N[C@@H](Cc2cccnc2)C(=O)N(C)[C@@H](Cc2ccccc2)C(=O)N1C` [Example 3243] ({CH2CO}-[3Pal][NMeF][NMeNle][Sar]DV[NMeF]Y[Sar]WYLCG-NH2; thioether N-13), 10 to 99.9 nM.
For `CCCC[C@H]1C(=O)N(C)CC(=O)N[C@@H](CC(=O)O)C(=O)N[C@@H](C(C)C)C(=O)N(C)[C@@H](Cc2ccccc2)C(=O)N[C@@H](Cc2ccc(O)cc2)C(=O)N(C)CC(=O)N[C@@H](Cc2c[nH]c3ccccc23)C(=O)N[C@@H](Cc2ccc(O)cc2)C(=O)N[C@@H](CC(C)C)C(=O)N[C@H](C(=O)NCC(N)=O)CSCC(=O)N[C@@H](Cc2ccc([N+](=O)[O-])cc2)C(=O)N(C)[C@@H](Cc2ccccc2)C(=O)N1C` [Example 3244] ({CH2CO}-[Phe(4-NO2)][NMeF][NMeNle][Sar]DV[NMeF]Y[Sar]WYLCG-NH2; thioether N-13), under setting [1], the IC50 lay in the range of 10 to 99.9 nM.
As to `CCCC[C@H]1C(=O)N(C)CC(=O)N[C@@H](CC(=O)O)C(=O)N[C@@H](C(C)C)C(=O)N(C)[C@@H](Cc2ccccc2)C(=O)N[C@@H](Cc2ccc(O)cc2)C(=O)N(C)CC(=O)N[C@@H](Cc2c[nH]c3ccccc23)C(=O)N[C@@H](Cc2ccc(O)cc2)C(=O)N[C@@H](CC(C)C)C(=O)N[C@H](C(=O)NCC(N)=O)CSCC(=O)N[C@@H](Cc2csc3ccccc23)C(=O)N(C)[C@@H](Cc2ccccc2)C(=O)N1C` [Example 3245] ({CH2CO}-[Bta][NMeF][NMeNle][Sar]DV[NMeF]Y[Sar]WYLCG-NH2; thioether N-13), under setting [1], the IC50 fell in the range of 1000 to 10000 nM.
Still for that read-out and setting: under `CCCC[C@H]1C(=O)N(C)CC(=O)N[C@@H](CC(=O)O)C(=O)N[C@@H](C(C)C)C(=O)N(C)[C@@H](Cc2ccccc2)C(=O)N[C@@H](Cc2ccc(O)cc2)C(=O)N(C)CC(=O)N[C@@H](Cc2c[nH]c3ccccc23)C(=O)N[C@@H](Cc2ccc(O)cc2)C(=O)N[C@@H](CC(C)C)C(=O)N[C@H](C(=O)NCC(N)=O)CSCC(=O)N[C@@H](Cc2ccc(Cl)c(Cl)c2)C(=O)N(C)[C@@H](Cc2ccccc2)C(=O)N1C` [Example 3246] ({CH2CO}-[Phe(3,4-Cl2)][NMeF][NMeNle][Sar]DV[NMeF]Y[Sar]WYLCG-NH2; thioether N-13) stands 10 to 99.9 nM.
Same read-out and setting: under `CCCC[C@H]1C(=O)N(C)CC(=O)N[C@@H](CC(N)=O)C(=O)N[C@@H](C(C)C)C(=O)N(C)[C@@H](Cc2ccccc2)C(=O)N[C@@H](Cc2ccc(O)cc2)C(=O)N(C)CC(=O)N[C@@H](Cc2c[nH]c3ccccc23)C(=O)N[C@@H](Cc2ccc(O)cc2)C(=O)N[C@@H](CCCN)C(=O)N[C@H](C(=O)NCC(N)=O)CSCC(=O)N[C@@H](Cc2ccccc2)C(=O)N(C)[C@@H](Cc2cccnc2)C(=O)N1C` [Example 3614] ({CH2CO}-F[NMe3Pal][NMeNle][Sar]NV[NMeF]Y[Sar]WY[Orn]CG-NH2; thioether N-13) stands 10 to 99.9 nM.
